# Key:
# Huh-5-2 replicon cells = assay: Alamar Blue toxicity assay in Huh-5-2 replicon cells; type: cell-based, human; conditions: for % of cell viability: 3 days, Huh-5-2, percentage of DMSO controls
# Description: (§1) The Huh-5-2 cell line carries the persistant bicistronic replicon I389luc-ubi-neo/NS3-3′/5.1 that expresses a firefly luciferase-ubiquitin-neomycin phosphotransferase fusion protein under the control of the HCV 5′ UTR and the NS3-5B HCV polyprotein that harbors the cell culture adaptive mutation of NK5.1. (J. Virol. 75:4614-4624, 2001) and is driven by the EMCV-IRES. Autonomously replicating HCV RNA replicons are detectable by Northern blot or via expression of the luciferase part of the fusion protein in a luciferase reporter assay. For luciferase reporter assays, Huh-5-2 cells were seeded at 2500 cells per well in 96 well plates in medium without G418. […] On day 3 after addition of compounds, Alamar Blue™ solution (Serotec), which contains a redox indicator, was added to the cells to measure cell proliferation and compound cytotoxicity. After incubation for 3-4 hours, fluorescence was monitored at the wavelengths of 560 nm and 590 nm with a Wallac 1420 multilabel counter. For the luciferase assay, the cells were subsequently washed twice with PBS without sodium hydrogen carbonate (Life Technologies GmbH, Karlsruhe), and luciferase activity was determined with the LucLite Plus Assay Kit (Packard Bioscience B.V.) according to the manufacturer's instructions in a Wallac 1450 Microbeta Luminescence counter.
# HCV RNA = assay: Metabolic labelling of HCV RNA in HCV replicon cell line 5-15 in the presence of actinomycin D; type: cell-based, Hepatitis C Virus; conditions: 50 μM, replicon cell line 5-15, actinomycin D, overnight [33P]-orthophosphate labelling
# Experimental: 1×10^6 Huh7-5-15 replicon cells and Huh-pcDNA3 cells were seeded into 10 cm culture plates and grown as described. After 24 hours cells were washed with phosphate-free medium and incubated in phosphate-free medium supplemented with 10% phosphate-free calf serum. Actinomycin D at a final concentration of 5 μg/ml was added to the cells together with the tested compounds at final concentrations of 10 and 50 μM. After 30 minutes of incubation cells were supplemented with 200 μCi ^33P-orthophosphate per dish and incubated over night. After cell lysis, RNA isolation was performed using the RNeasy mini kit (QIAGEN) according to recommendations given by the manufacturer. Northern blot was carried out according to standard procedures and autoradiography of the membrane was performed.
# HCV replicons = assay: Luciferase reporter assay of HCV replicons in the Huh-5-2 cell line; type: cell-based, Hepatitis C Virus; conditions: for % activity (luciferase, replicon RNA levels): 3 days, Huh-5-2, percentage of DMSO controls
# Description: as §1
# CKI isoforms α, δ and ε = assay: In-vitro kinase assay, GST-NS5A phosphorylation by Mono Q Peak I fractions of Huh-7 cells; type: biochemical, human; conditions: CKI-enriched partially purified Mono Q fraction of Huh-7 cells, FIG. 6A
# Experimental: Confluent 15 cm dishes of Huh-7 cells were lysed in 500 μl lysis buffer per dish containing 20 mM Tris (tris-(hydroxymethyl)-amino methane) pH 8.0, 10 mM NaF (sodium fluoride), 2 mM MgCl2 (Magnesium chloride), 1 mM DTT (dithiothreitol), 2 mM EGTA (ethylene glycol-bis(β-amino-ethyl ether)-N,N,N′,N′-tetraacetic acid), 1 mM PMSF (phenylmethylsulfonyl fluoride), 0.1% NP40 (Nonidet P-40), 10 μg/ml Aprotinin, 10 μg/ml Leupeptin, and 1 mM orthovanadate. Lysates were cleared by centrifugation (20 min, 13000 rpm, 4° C.) and filtered using a 0.45 μm syringe filter (Nalgene). This cleared material was further purified by a 1 ml Mono Q column (Amersham Biosciences) equilibrated with lysis buffer without additives. After washing the column, bound proteins were eluted with lysis buffer containing 1 M NaCl in a step gradient modus. Eluted proteins were collected in 1 ml fractions, systematically pooled, dialysed against 50 mM Tris pH 7.5, 10 mM NaF, 1 mM DTT, 0.01% Triton X-100 and stored at −80° C. Chromatography runs were performed on a AKTA explorer 10 system (Amersham Biosciences). Samples were subsequently assayed by in-vitro kinase assays and western blot analysis.
# GST-NS5A immobilized to Glutathione Sepharose 4B beads (Amersham Biosciences) was washed twice with 500 μl kinase buffer (50 mM Tris pH 7.5, 10 mM MgCl2, 0.5 mM DTT). […]
structure (smiles),measurement,setting,value
"C[S+]([O-])c1ccc(-c2nc(-c3cccc(I)c3)c(-c3ccncc3)[nH]2)cc1 (centres unmarked) [Compound 39, 4-[5-(3-Iodo-phenyl)-2-(4-methanesulfinyl-phenyl)-3H-imidazole-4-yl]-pyridine]",% of cell viability,Huh-5-2 replicon cells; 1.25 μM,108%
same,% of cell viability,Huh-5-2 replicon cells; 2.5 μM,105%
same,% of cell viability,Huh-5-2 replicon cells; 5 μM,109%
same,% of cell viability,Huh-5-2 replicon cells; 10 μM,114%
same,% of cell viability,Huh-5-2 replicon cells; 20 μM,72%
same,Toxicity,"Huh-5-2 replicon cells; up to a concentration of 10 μM, Huh-5-2",low
same,synthesis of HCV RNA,HCV RNA,reduced
same,"% activity (luciferase, replicon RNA levels)",HCV replicons; 1.25 μM,117%
same,"% activity (luciferase, replicon RNA levels)",HCV replicons; 2.5 μM,104%
same,"% activity (luciferase, replicon RNA levels)",HCV replicons; 5 μM,89%
same,"% activity (luciferase, replicon RNA levels)",HCV replicons; 10 μM,28%
same,"% activity (luciferase, replicon RNA levels)",HCV replicons; 20 μM,0%
same,IC50,"HCV replicons; Hepatitis C virus, 72 h, Huh-5-2, 3 days, read-out: IC50, replication of subgenomic HCV replicon RNA in the luciferase reporter assay",9 µM
same,inhibitory effect on NS5A-phosphorylating kinase activity present in the Peak I fractions,"CKI isoforms α, δ and ε",potent inhibitor
